In brackets after ≈: the same amount, converted by molar mass.
How the values were obtained:
[1] = system: Lgr5+ cells (cochlear stem cells); assay: Lgr5+ assay: expansion of Lgr5-positive cochlear cells in 3D culture; type: cell-based, mouse; details: for % of Lgr5+ Positive Cells / Potency (Lgr5+ activity): 10 days culture with EGF, bFGF, IGF1, approximate values; for Potency (Lgr5+ activity): effective concentration for Lgr5+ expansion
Excerpt: “Stem Cell Proliferation Assay” as used herein is an assay to determine the capacity for agent(s) to induce the creation of stem cells from a starting cell population. In an exemplary Stem Cell Proliferation Assay, the number of cells for an initial cell population is harvested from a Lgr5-GFP mouse such as a B6.129P2-Lgr5tm1(cre/ERT2)Cle/J mouse (also known as Lgr5-EGFP-IRES-creERT2 or Lgr5-GFP mouse, Jackson Lab Stock No: 008875) between the age of 3 to 7 days, by isolating the organ of Corti sensory epithelium and dissociating the epithelium into single cells. Approximately 5000 cells are entrapped in 40 μl of culture substrate (for example, Matrigel (Corning, Growth Factor Reduced)) and placed at the center of wells in a 24-well plate with 500 μl of an appropriate culture media, growth factors and agent being tested. Appropriate culture media and growth factors include Advanced DMEM/F12 with media supplements (1×N2, 1×B27, 2 mM Glutamax, 10 mM HEPES, 1 mM N-acetylcysteine, and 100 U/ml penicillin/100 μg/ml streptomycin) and growth factors (50 ng/ml EGF, 50 ng/ml bFGF, and 50 ng/ml IGF-1) as well as the agent(s) being assessed are added into each well. Cells are cultured for 10 days in a standard cell culture incubator at 37° C. and 5% CO2, with media change every 2 days. The number of Lgr5^+ cells is quantified by counting the number of cells identified as Lgr5+ in an in vitro Lgr5 activity assay (i.e., an assay mearing in vitro Lgr5 activity). The fraction of cells that are Lgr5^+ is quantified by dividing the number of cells identified as Lgr5^+ in a cell population by the total number of cells present in the cell population. The average Lgr5^+ activity of a population is quantified by measuring the average mRNA expression level of Lgr5 of the population normalized using suitable and unregulated references or housekeeping genes (e.g., Hprt). The number of hair cells in a population may be measured by staining with hair cell marker (e.g., MyosinVIIa), or using an endogenous reporter of hair cell genes (e.g., Pou4f3-GFP, Atoh1-nGFP) and analyzing using flow cytometry. The fraction of cells that are hair cells is quantified by dividing the number of cells identified as hair cells in a cell population by the total number of cells present in the cell population. Lgr5 activity can be measured by qPCR.
The compounds of the present disclosure were used in Lgr5-EGFP-IRES-Cre-ER mice (Barker et al., 2007) to analyze the effects of small molecules on cochlear stem cell expansion.
Isolation of stem cells from the inner ear: All animal studies were conducted under an approved institutional protocol according to National Institutes of Health guidelines. For experiments with neonatal mice (postnatal days 1-3), the cochleae were dissected in Hank's Balanced Salt Solution (HBSS) and the organs of Corti were separated from the stria vascularis and the modiolus. The organs of Corti were then treated with Cell Recovery Solution (Corning) for 1 hour to separate cochlear epithelium from the underlying mesenchyme. Epithelia were then collected and treated with TrypLE (Life Technologies) for 15-20 minutes at 37° C. Single cells obtained by mechanical trituration were filtered (40 μm) and suspended in Matrigel® (Corning) for 3D culture.
Cells were cultured in a 1:1 mixture of DMEM and F12, supplemented with Glutamax (GIBCO), N2, B27 (Invitrogen), EGF (50 ng/ml; Chemicon), bFGF (50 ng/ml; Chemicon), IGF1 (50 ng/ml; Chemicon) and the composition provided herein. Medium was changed every other day.
Lgr5-positive cells were quantified after 10 days (D10) in culture in multiple conditions. Cell colonies were dissociated into single cells using TrypLE (Gibco). The cells were then stained with propidium iodide (P1) and were analyzed using a flow cytometer for Lgr5-GFP expression. The number of GFP-positive cells and the percentage of GFP-positive cells were quantified. […]

[2] = Thermodynamic aqueous solubility at pH 7.4; type: physicochemical; details: aqueous buffer, thermodynamic from solid, phosphate buffer pH 7.4, 25° C., approximate values, read-out: Concentration (thermodynamic aqueous solubility)
Description: The aqueous thermodynamic solubilities of the compounds of the present disclosure were measured at pH 7.4.
Determining suitability for use of a compound, e.g., as a therapeutic agent can include determining the thermodynamic solubility of the compound. An example of this determination follows: Accurately weigh about 1 mg of the powder of each compound into a glass insert vial and phosphate buffer into each vial of a capless Solubility Sample plate with the volume of 1 mL per mg. Next, add one stir stick to each vial and seal with a molded PTDE/SIL 96-Well Plate Cover. Transfer the Solubility Sample plate to an Eppendorf Thermomixer Comfort plate shaker and shake the plate at 25° C. at 1,100 rpm for 24 hours. At the end of the incubation, open the cover and remove the stir sticks using a big magnet and transfer the samples from the Solubility Sample plate into the filter plate. Using the vacuum manifold, all the samples were filtered. An aliquot of 100 μL was transferred from filtrate to a new 96-well plate by addition of 900 μL of a mixture of H2O and acetonitrile containing an internal standard (1:1) (10 fold) and 10 μL of the diluted solution was pipetted into a new 96-well plate by addition of 990 μL of a mixture of H2O and acetonitrile containing internal standard (1:1) (1,000 fold). The dilution factor may be changed according to the solubility value and the LC/MS signal response.
To prepare standards for the assay, accurately weigh about 1 mg of the powder of each compound into a glass insert vial, add DMSO into each vial of the Standard Plate with the volume of 1 mL per mg to obtain the 1 mg/mL STD sample. Aliquots of 10 μL were taken from 1 mg/mL STD sample to a new 96-well plate followed by addition of 990 μL of a mixture of H2O and acetonitrile containing internal standard (1:1) to obtain 10 μg/mL STD and then 10 μL aliquots were taken from 10 μg/mL sample to a new 96-well plate followed by addition of 990 μL of a mixture of H2O and acetonitrile containing internal standard (1:1) to obtain 0.1 μg/mL STD. The concentration of the standard sample may be changed according to the LC/MS signal response.
The samples were analyzed and quantified against the standard of known concentration using LC/MS/MS. The solubility of the test compound was calculated as follows: [Sample]=Area Ratio sample×DF sample×[STD]/Area Ratio STD DF means the dilution factor. Any value of the compounds that is not within the specified limits was rejected and the experiment was repeated.

[3] = in a background of growth factors, compared to CHIR-99021 and its combinations (figures)

solubility thermodynamic at 24 h [2] [µM]	Compound	% of Lgr5+ Positive Cells [1] [%]	Potency (Lgr5+ activity) [1] [µM]	Lgr5 GFP+ progenitor cell proliferation (Lgr5 positive cell count) [1, 3]	enrichment of Lgr5 GFP+ cochlear progenitor cells (percent of Lgr5 positive cells) [1, 3]
	CCn1cc(C(=O)O)c(=O)c2cc(F)c(NC3CCCCC3)cc21 [Compound I-1]	<5	>10		
	CC(C)n1cc(C(=O)O)c(=O)c2c(N)c(F)c(NCCN[C@@H]3C[C@H]3c3ccccc3)cc21 (relative stereo) [Compound I-88]	32	1.1		
< 0.08	CCn1cc(C(=O)O)c(=O)c2c(N)c(F)c(NC3Cc4ccccc4C3)cc21 [Compound I-11]	17	3.3		
< 0.03	CCn1cc(C(=O)O)c(=O)c2c(N)c(F)c(NCCCc3ccccc3)cc21 [Compound I-19]	17	0.37		
	CC(C)n1cc(C(=O)O)c(=O)c2c(N)c(F)c(N[C@]3(C)C[C@@H](N[C@@H]4C[C@H]4c4ccccc4)C3)cc21 (relative stereo) [Compound I-93]	8	>30		
0.23 (≈ 0.0806 µg/mL)	CCn1cc(C#N)c(=O)c2c(N)c(F)c(NCCc3ccccc3)cc21 [Compound I-67]				
< 0.12	CCn1cc(C(=O)O)c(=O)c2c(N)c(F)c(NC3CCCCC3)cc21 [Compound I-7]	22	0.37	generate Lgr5 GFP+ progenitor cell proliferation	generates enrichment of Lgr5 GFP+ cochlear progenitor cells
0.03 (≈ 0.0118 µg/mL)	CCn1cc(-c2nnn[nH]2)c(=O)c2c(N)c(F)c(NCCc3ccccc3)cc21 [Compound I-68]				
	CCn1cc(C(=O)O)c(=O)c2c(N)c(F)c(N[C@H]3C[C@@H]3c3ccccc3)cc21 [Compound I-22]	16	1.1		
< 1.2	CCn1cc(C(=O)O)c(=O)c2c(N)c(F)c(N[C@@H]3CC[C@H]3c3ccccc3)cc21 (relative stereo) [Compound I-13]				
< 1.8	CCn1cc(C(=O)O)c(=O)c2c(N)c(F)c(NC3CCCC3)cc21 [Compound I-9]	13	1.1		
0.06 (≈ 0.0221 µg/mL)	CCn1cc(C(N)=O)c(=O)c2c(N)c(F)c(NCCc3ccccc3)cc21 [Compound I-66]				
< 0.03	CCn1cc(C(=O)O)c(=O)c2c(N)c(F)c(NC3CN(c4ccccc4)C3)cc21 [Compound I-69]	25	1.1		
35 (≈ 12.2 µg/mL)	CCn1cc(C(=O)O)c(=O)c2c(N)c(F)c(NC3CCOCC3)cc21 [Compound I-8]	21	3.3		
49 (≈ 19.9 µg/mL)	CCn1cc(C#N)c(=O)c2c(N)c(F)c(NCCN[C@@H]3C[C@H]3c3ccccc3)cc21 (relative stereo) [Compound I-84]	9	1.1		
0.11 (≈ 0.0406 µg/mL)	CCn1cc(C(=O)O)c(=O)c2c(N)cc(NCCc3ccccc3)c(F)c21 [Compound I-65]				
	CCC(CC)n1cc(C(=O)O)c(=O)c2c(C)c(F)c(NC3CCCCC3)cc21 [Compound I-3]	<5	>10		
< 0.3	CCn1cc(C(=O)O)c(=O)c2c(N)c(F)c(N[C@@H]3C[C@H]3c3ccccc3)cc21 (single isomer, unassigned) [Compound I-20]	42			
	CCn1cc(C(=O)O)c(=O)c2c(N)c(F)c(N3CCC(N[C@@H]4C[C@H]4c4ccccc4)CC3)cc21 (relative stereo) [Compound I-26]	<5	>10		
54 (≈ 21.4 µg/mL)	CCn1cc(C(=O)O)c(=O)c2c(N)c(F)c(Nc3ccc([C@@H]4C[C@H]4N)cc3)cc21 (relative stereo) [Compound I-62]				
23 (≈ 9.44 µg/mL)	Cn1cc(C(=O)O)c(=O)c2c(N)c(F)c(NCCN[C@@H]3C[C@H]3c3ccccc3)cc21 (relative stereo) [Compound I-86]	4	>30		
1.2 (≈ 0.541 µg/mL)	CCn1cc(C(=O)O)c(=O)c2c(N)c(F)c(NCCN[C@@H]3C[C@]34CCc3ccccc34)cc21 (relative stereo) [Compound I-81]	65	10		
< 0.06	CCn1cc(C(=O)O)c(=O)c2c(N)cc(N[C@@H]3C[C@H]3c3ccccc3)cc21 (relative stereo) [Compound I-59]				
< 0.08	Nc1c(F)c(N[C@@H]2C[C@H]2c2ccccc2)c(F)c2c1c(=O)c(C(=O)O)cn2C1CC1 (relative stereo) [Compound I-32]				
	CCn1cc(C(=O)O)c(=O)c2c(N)c(F)c(N[C@@H]3C[C@H]3c3ccccc3)cc21 [Compound I-21]	21	3.3		
	CCn1cc(C(=O)O)c(=O)c2c(N)c(F)c(NC3CCc4ccccc43)cc21 (centres unmarked) [Compound I-10]	1	>10		
	CCn1cc(C(=O)O)c(=O)c2c(N)c(F)c(NCCN[C@@H]3C[C@@]34CCc3ccccc34)cc21 (relative stereo) [Compound I-82]	48	10		
	Nc1c(F)c(NCCN[C@@H]2C[C@H]2c2ccccc2)cc2c1c(=O)c(C(=O)O)cn2C1CC1 (relative stereo) [Compound I-89]	35	3.3		

Source: US20230058189A1, “QUINOLIN-4-ONE AND 4(1H)-CINNOLINONE COMPOUNDS AND METHODS OF USING SAME” (Frequency Therapeutics, Inc., priority 2019, published 2023)
